Among the data in ChEMBL document CHEMBL1146434, “Michellamines D-F, new HIV-inhibitory dimeric naphthylisoquinoline alkaloids, and korupensamine E, a new antimalarial monomer, from Ancistrocladus korupensis” (J Nat Prod, 1997) are IC50 and EC50 values, retold here.

One assay relates to CEM-SS. The assay is described as follows: Cytotoxicity against human CEM-SS cells. It is filed as cell-based.
For assay [1], the system named is Human immunodeficiency virus 1. Kind of assay: Antiviral activity against HIV1 G9106 infected in human MT2 cells. The class given is functional, organism-based. Conditions: Human immunodeficiency virus 1, G9106, MT2.
Assay [2] concerns Human immunodeficiency virus 1. The assay is described as follows: Antiviral activity against HIV1 A17 infected in human MT2 cells. The class given is functional, organism-based. Conditions: Human immunodeficiency virus 1, A17, MT2.
Assay [3] concerns Human immunodeficiency virus 1. The assay is described as follows: Antiviral activity against HIV1 RF infected in human CEM-SS cells. The class given is functional, organism-based. Conditions: Human immunodeficiency virus 1, RF.
For assay [4], the system named is Human immunodeficiency virus 1. Kind of assay: Antiviral activity against HIV1 OC100 infected in human CEM-SS cells. The class given is functional, organism-based. Particulars: Human immunodeficiency virus 1, CEM-SS.
Another assay has as its system Plasmodium falciparum. Kind of assay: Antimalarial activity against Plasmodium falciparum. It is filed as functional, organism-based.

Values after ≈ are worked out from the molar mass of the structure shown.

As usually defined, the IC50 is the concentration needed to halve the response being measured. The EC50 is the concentration at which the effect is half-maximal. A low value points to higher potency in that assay. Regarding `COc1cc(C)cc2c(-c3c(O)cc(O)c4c3C[C@H](C)N(C)[C@@H]4C)cc(-c3cc(-c4c(O)cc(O)c5c4C[C@@H](C)N[C@@H]5C)c4cc(C)cc(OC)c4c3O)c(O)c12` [MICHELLAMINE E], the IC50 in the assay with CEM-SS came to 23 µM. Besides, the concentration for a half-maximal effect (EC50) in assay [1] was determined as 15 µM; in assay [2] it was 13 µM; in assay [3] it was 4 µM; in assay [4], 11 µM.

In the assay on CEM-SS, `COc1cc(O)c(-c2cc(-c3cc(-c4c(O)cc(O)c5c4C[C@@H](C)N[C@@H]5C)c4cc(C)cc(OC)c4c3O)c(O)c3c(OC)cc(C)cc23)c2c1[C@@H](C)N[C@H](C)C2` [MICHELLAMINE D] displayed an IC50 of 17 µM. Besides, the EC50 in assay [1] worked out at 11 µM; in assay [2], 10 µM; in assay [3], 3 µM; in assay [4] it was 20 µM.

On to `COc1cc(O)c(-c2ccc(OC)c3c(O)cc(C)cc23)c2c1[C@@H](C)N[C@H](C)C2` [KORUPENSAMINE E], for which, in the assay with Plasmodium falciparum, half-maximal inhibition (IC50) required 2 µg/mL (≈ 5.08 µM).

Take `COc1cc(C)cc2c(-c3c(O)cc(O)c4c3C[C@@H](C)N[C@@H]4C)cc(-c3cc(-c4c(O)cc(O)c5c4C[C@@H](C)N[C@@H]5C)c4cc(C)cc(OC)c4c3O)c(O)c12` [MICHELLAMINE A]: the half-maximal effective concentration (EC50) in assay [1] stood at 19 µM; in assay [2], 18 µM; in assay [3], 6 µM; in assay [4], 23 µM.

Regarding `COc1cc(O)c(-c2cc(-c3cc(-c4c(O)cc(O)c5c4C[C@@H](C)N[C@@H]5C)c4cc(C)cc(OC)c4c3O)c(O)c3c(OC)cc(C)cc23)c2c1C(C)=N[C@H](C)C2` [MICHELLAMINE F], inhibition in the assay with CEM-SS was half-maximal at 188 µM (IC50). The concentration giving a half-maximal response (EC50) amounted to 8 µM in assay [1], 11 µM in assay [2], 2 µM in assay [3] and 9 µM in assay [4].
